Experimental data from ChEMBL document CHEMBL6109056, “Disrupted target binding with acryloyl group as potential Bcr-Abl/C-Src dual kinase inhibitor optimization strategies with maintained antitumor activity” (Bioorg Med Chem Lett, 2025).

Columns and labels:
Bcr/Abl fusion protein = Bcr/Abl fusion protein (Homo sapiens, UniProt P00519); assay: Inhibition of wild-type Bcr-Abl (unknown origin) in presence of ATP; type: protein assay
[1] = Inhibition of C-Src (unknown origin) in presence of ATP; parameters: species or system Homo sapiens
K562 [2] = assay: Cytotoxicity against human K562 cells assessed as growth inhibition incubated for 72 hrs by MTT assay; type: functional, cell-based; conditions: K562, 72 h
MCF7 [3] = assay: Cytotoxicity against human MCF7 cells assessed as growth inhibition incubated for 72 hrs by MTT assay; type: functional, cell-based; conditions: MCF7, 72 h
A549 [4] = assay: Cytotoxicity against human A549 cells assessed as growth inhibition incubated for 72 hrs by MTT assay; type: functional, cell-based; conditions: A549, 72 h
K562 [5] = assay: Cytotoxicity against human K562 cells assessed as growth inhibition at 10 uM incubated for 72 hrs by MTT assay relative to control; type: functional
MCF7 [6] = assay: Cytotoxicity against human MCF7 cells assessed as growth inhibition at 10 uM incubated for 72 hrs by MTT assay relative to control; type: functional
A549 [7] = assay: Cytotoxicity against human A549 cells assessed as growth inhibition at 10 uM incubated for 72 hrs by MTT assay relative to control; type: functional
HCT-116 [8] = assay: Cytotoxicity against human HCT-116 cells assessed as growth inhibition incubated for 72 hrs by MTT assay; type: functional, cell-based; conditions: HCT-116, 72 h
[9] = molecular target: Bcr/Abl fusion protein (Homo sapiens) (UniProt P00519+P11274); assay: Inhibition of wild-type Bcr-Abl (unknown origin) at 10 uM in presence of ATP relative to control; type: protein assay
Homo sapiens = organism: Homo sapiens; assay: Inhibition of C-Src (unknown origin) at 10 uM in presence of ATP relative to control
HCT-116 [10] = assay: Cytotoxicity against human HCT-116 cells assessed as growth inhibition at 10 uM incubated for 72 hrs by MTT assay relative to control; type: functional

Sequence of Bcr/Abl fusion protein (P00519 whole entry, the tested form may be a part): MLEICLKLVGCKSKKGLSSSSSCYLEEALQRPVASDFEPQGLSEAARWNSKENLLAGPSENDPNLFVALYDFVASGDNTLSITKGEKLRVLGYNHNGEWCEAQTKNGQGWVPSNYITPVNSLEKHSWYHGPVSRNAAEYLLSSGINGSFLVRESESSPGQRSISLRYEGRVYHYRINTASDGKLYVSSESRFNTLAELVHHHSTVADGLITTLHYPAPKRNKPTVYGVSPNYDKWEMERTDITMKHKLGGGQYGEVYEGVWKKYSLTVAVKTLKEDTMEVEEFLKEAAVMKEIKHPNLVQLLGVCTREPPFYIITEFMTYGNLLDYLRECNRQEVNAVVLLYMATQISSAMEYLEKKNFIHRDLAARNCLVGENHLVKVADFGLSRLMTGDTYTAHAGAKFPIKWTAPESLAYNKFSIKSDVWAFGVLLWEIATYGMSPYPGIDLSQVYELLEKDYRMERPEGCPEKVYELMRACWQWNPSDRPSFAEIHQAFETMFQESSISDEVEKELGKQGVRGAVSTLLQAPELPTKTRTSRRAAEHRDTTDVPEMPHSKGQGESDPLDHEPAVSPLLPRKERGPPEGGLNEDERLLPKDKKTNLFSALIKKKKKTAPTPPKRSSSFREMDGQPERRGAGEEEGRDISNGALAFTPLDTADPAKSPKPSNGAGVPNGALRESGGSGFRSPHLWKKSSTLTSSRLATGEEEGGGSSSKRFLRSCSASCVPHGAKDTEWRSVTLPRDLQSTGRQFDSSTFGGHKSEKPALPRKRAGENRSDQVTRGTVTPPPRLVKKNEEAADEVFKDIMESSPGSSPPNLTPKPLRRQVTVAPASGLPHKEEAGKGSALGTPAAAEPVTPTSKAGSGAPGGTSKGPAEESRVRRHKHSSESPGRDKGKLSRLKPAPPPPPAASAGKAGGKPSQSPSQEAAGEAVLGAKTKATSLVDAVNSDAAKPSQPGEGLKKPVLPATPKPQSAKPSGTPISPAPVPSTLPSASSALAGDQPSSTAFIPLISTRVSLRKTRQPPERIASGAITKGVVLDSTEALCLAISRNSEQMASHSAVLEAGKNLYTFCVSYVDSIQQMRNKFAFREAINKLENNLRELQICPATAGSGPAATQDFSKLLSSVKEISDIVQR
Sequence of Bcr/Abl fusion protein (P11274 whole entry, further chain, the tested form may be a part): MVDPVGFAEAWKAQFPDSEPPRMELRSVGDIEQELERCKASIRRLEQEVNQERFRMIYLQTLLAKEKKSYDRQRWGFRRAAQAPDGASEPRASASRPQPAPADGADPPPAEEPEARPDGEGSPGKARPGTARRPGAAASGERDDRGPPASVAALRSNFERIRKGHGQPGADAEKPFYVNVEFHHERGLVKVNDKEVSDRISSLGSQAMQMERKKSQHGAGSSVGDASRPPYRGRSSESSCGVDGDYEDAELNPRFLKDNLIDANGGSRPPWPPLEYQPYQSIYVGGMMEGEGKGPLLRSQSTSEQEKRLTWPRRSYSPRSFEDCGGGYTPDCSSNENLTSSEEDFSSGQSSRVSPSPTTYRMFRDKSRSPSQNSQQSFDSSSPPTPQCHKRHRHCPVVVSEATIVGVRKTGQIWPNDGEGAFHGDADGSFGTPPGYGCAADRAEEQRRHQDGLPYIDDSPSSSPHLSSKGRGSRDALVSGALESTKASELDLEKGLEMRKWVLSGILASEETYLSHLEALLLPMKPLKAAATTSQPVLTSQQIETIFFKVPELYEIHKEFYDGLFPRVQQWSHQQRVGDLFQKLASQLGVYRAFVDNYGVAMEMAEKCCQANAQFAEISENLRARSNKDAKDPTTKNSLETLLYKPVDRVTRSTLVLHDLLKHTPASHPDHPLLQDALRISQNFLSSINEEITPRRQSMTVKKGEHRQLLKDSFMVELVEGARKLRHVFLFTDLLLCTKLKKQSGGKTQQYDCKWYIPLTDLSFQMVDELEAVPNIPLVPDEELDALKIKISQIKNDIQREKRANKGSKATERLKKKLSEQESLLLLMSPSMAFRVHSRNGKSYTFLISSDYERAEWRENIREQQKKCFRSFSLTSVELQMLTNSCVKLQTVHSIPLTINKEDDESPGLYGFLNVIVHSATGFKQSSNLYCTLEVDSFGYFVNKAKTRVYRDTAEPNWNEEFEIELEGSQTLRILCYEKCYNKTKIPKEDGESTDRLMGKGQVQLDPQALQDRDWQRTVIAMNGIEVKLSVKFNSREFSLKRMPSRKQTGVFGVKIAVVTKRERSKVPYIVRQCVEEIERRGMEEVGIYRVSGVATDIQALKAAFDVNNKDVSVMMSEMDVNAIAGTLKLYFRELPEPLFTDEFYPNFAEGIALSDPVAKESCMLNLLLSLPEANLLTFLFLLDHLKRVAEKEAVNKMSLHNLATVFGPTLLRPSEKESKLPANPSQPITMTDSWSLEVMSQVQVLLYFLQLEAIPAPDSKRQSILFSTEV
Sequence of Bcr/Abl fusion protein (Homo sapiens) (P00519 whole entry, looked up, the tested form may be a part): as the sequence (P00519 whole entry, the tested form may be a part) above
Sequence of Bcr/Abl fusion protein (Homo sapiens) (P11274 whole entry, looked up, the tested form may be a part): as the sequence (P11274 whole entry, further chain, the tested form may be a part) above

| SMILES | IC50 (Bcr/Abl fusion protein) [nM] | IC50 [1] [nM] | EC50 (K562 [2]) [nM] | EC50 (A549 [4]) [nM] | also measured |
| --- | --- | --- | --- | --- | --- |
| COc1cc2ncc(C#N)c(Nc3ccc(Br)cc3Br)c2cc1OC | 5430 | 2440 |  |  |  |
| COc1cc(Nc2c(C#N)cnc3cc(OCCCN4CCOCC4)c(OC)cc23)c(Cl)cc1Cl | 0.42 | 0.27 | 6430 | 7400 | EC50 (MCF7 [3]): 8670 nM |
| C=CC(=O)N(c1cc(OC)ccc1Cl)c1c(C#N)cnc2cc(OCCCN3CCOCC3)c(OC)cc12 | 193 | 207 |  |  | inhibition at 10 µM (K562 [5]): 40%; inhibition at 10 µM (MCF7 [6]): 25%; inhibition at 10 µM (A549 [7]): 31% |
| COc1cc(Nc2c(C#N)cnc3cc(OCCCN4CCN(C)CC4)c(OC)cc23)c(Cl)cc1Cl [BOSUTINIB] |  | 0.14 | 690 | 970 | EC50 (HCT-116 [8]): 3420 nM |
| C=CC(=O)N(c1cc(OC)ccc1Cl)c1c(C#N)cnc2cc(OCCCN3CCN(C)CC3)c(OC)cc12 | 186 | 484 | 9830 |  | inhibition at 10 µM (MCF7 [6]): 40%; inhibition at 10 µM (A549 [7]): 32% |
| C=CC(=O)N(c1cc(OC)c(Cl)cc1Cl)c1c(C#N)cnc2cc(OCCCN3CCOCC3)c(OC)cc12 | 169 | 110 | 6390 | 4170 | EC50 (MCF7 [3]): 7850 nM |
| COc1ccc(Cl)c(Nc2c(C#N)cnc3cc(OCCCN4CCOCC4)c(OC)cc23)c1 | 0.23 | 0.33 | 1190 | 7150 | EC50 (MCF7 [3]): 9340 nM |
| COc1ccc(Cl)c(Nc2c(C#N)cnc3cc(OCCCN4CCN(C)CC4)c(OC)cc23)c1 | 0.06 | 0.23 |  | 4510 | inhibition at 10 µM (K562 [5]): 46%; EC50 (MCF7 [3]): 4490 nM |
| C=CC(=O)N(c1cc(OC)c(Cl)cc1Cl)c1c(C#N)cnc2cc(OCCCN3CCN(C)CC3)c(OC)cc12 | 56.2 | 101 | 1060 | 1440 | EC50 (HCT-116 [8]): 4860 nM |
| C=CC(=O)N(c1cc(OC)ccc1Cl)c1c(C#N)cnc2cc(OC)c(OC)cc12 | 569 | 1840 |  |  |  |
| COc1cc2ncc(C#N)c(Nc3ccc(Cl)cc3Cl)c2cc1OC | 4.38 | 4.67 |  |  |  |
| COc1cc(Nc2c(C#N)cnc3cc(OCCCN4CCCCC4)c(OC)cc23)c(Cl)cc1Cl | 0.14 | 0.11 | 7330 | 8560 | EC50 (HCT-116 [8]): 7990 nM |
| C=CC(=O)N(c1cc(OC)ccc1Cl)c1c(C#N)cnc2cc(OCCCN3CCCCC3)c(OC)cc12 | 112 | 132 | 9760 | 8900 | EC50 (MCF7 [3]): 9450 nM |
| C=CC(=O)N(c1cc(OC)c(Cl)cc1Cl)c1c(C#N)cnc2cc(OCCCN3CCCCC3)c(OC)cc12 | 214 | 169 | 3190 | 5500 | EC50 (HCT-116 [8]): 6380 nM |
| COc1ccc(Cl)c(Nc2c(C#N)cnc3cc(OCCCN4CCCCC4)c(OC)cc23)c1 | 0.3 | 0.35 | 8070 | 7870 | inhibition at 10 µM (MCF7 [6]): 29% |
| COc1cc2ncc(C#N)c(Nc3ccccc3)c2cc1OC |  |  |  |  | inhibition [9]: 98.7%; inhibition (Homo sapiens): 96.5% |
| COc1cc(Nc2c(C#N)cnc3cc(OC)c(OC)cc23)c(Cl)cc1Cl | 0.76 | 0.77 |  |  |  |
| C=CC(=O)N(c1cc(OC)c(Cl)cc1Cl)c1c(C#N)cnc2cc(OC)c(OC)cc12 | 893 | 863 |  |  |  |
| C=CC(=O)N(c1ccc(Br)cc1Br)c1c(C#N)cnc2cc(OC)c(OC)cc12 | > 10000 | 8520 |  |  |  |
| C=CC(=O)N(c1ccccc1)c1c(C#N)cnc2cc(OC)c(OC)cc12 |  |  |  |  | inhibition [9]: 7.1%; inhibition (Homo sapiens): 9.5% |
| COc1cc(N(C(C)=O)c2c(C#N)cnc3cc(OCCCN4CCCCC4)c(OC)cc23)c(Cl)cc1Cl | 1100 | 770 |  |  | inhibition at 10 µM (K562 [5]): 31%; inhibition at 10 µM (MCF7 [6]): 34%; inhibition at 10 µM (HCT-116 [10]): 34%; inhibition at 10 µM (A549 [7]): 28% |
| C=CC(=O)N(c1ccc(Cl)cc1Cl)c1c(C#N)cnc2cc(OC)c(OC)cc12 | 1330 | 2080 |  |  |  |
| COc1ccc(Cl)c(Nc2c(C#N)cnc3cc(OC)c(OC)cc23)c1 | 0.64 | 0.89 |  |  |  |
